Drawing on US9682985B2, “(Indazol-4-yl) hexahydropyrrolopyrrolones and methods of use” (AbbVie Inc., priority 2015, dated 2017), this text covers IC50 for 21 compounds.

Holding throughout (format): cell-based
For experiment [1], the target named is T1, recombinant human Nav1.8 (Homo sapiens, UniProt Q9Y5Y9).
T1 construct: host or cells: HEK293
Briefly: FRET-based membrane potential assay, Nav1.8. Particulars: HEK293 cells expressing recombinant human Nav1.8; veratridine + scorpion venom depolarization.

The target of experiment [2] is T2, hERG channel (Kv11.1) (Homo sapiens, UniProt Q12809).
T2 construct: W. January (Wisconsin Alumni Research Foundation); host or cells: HEK-293
T2 sequence (Q12809 whole entry): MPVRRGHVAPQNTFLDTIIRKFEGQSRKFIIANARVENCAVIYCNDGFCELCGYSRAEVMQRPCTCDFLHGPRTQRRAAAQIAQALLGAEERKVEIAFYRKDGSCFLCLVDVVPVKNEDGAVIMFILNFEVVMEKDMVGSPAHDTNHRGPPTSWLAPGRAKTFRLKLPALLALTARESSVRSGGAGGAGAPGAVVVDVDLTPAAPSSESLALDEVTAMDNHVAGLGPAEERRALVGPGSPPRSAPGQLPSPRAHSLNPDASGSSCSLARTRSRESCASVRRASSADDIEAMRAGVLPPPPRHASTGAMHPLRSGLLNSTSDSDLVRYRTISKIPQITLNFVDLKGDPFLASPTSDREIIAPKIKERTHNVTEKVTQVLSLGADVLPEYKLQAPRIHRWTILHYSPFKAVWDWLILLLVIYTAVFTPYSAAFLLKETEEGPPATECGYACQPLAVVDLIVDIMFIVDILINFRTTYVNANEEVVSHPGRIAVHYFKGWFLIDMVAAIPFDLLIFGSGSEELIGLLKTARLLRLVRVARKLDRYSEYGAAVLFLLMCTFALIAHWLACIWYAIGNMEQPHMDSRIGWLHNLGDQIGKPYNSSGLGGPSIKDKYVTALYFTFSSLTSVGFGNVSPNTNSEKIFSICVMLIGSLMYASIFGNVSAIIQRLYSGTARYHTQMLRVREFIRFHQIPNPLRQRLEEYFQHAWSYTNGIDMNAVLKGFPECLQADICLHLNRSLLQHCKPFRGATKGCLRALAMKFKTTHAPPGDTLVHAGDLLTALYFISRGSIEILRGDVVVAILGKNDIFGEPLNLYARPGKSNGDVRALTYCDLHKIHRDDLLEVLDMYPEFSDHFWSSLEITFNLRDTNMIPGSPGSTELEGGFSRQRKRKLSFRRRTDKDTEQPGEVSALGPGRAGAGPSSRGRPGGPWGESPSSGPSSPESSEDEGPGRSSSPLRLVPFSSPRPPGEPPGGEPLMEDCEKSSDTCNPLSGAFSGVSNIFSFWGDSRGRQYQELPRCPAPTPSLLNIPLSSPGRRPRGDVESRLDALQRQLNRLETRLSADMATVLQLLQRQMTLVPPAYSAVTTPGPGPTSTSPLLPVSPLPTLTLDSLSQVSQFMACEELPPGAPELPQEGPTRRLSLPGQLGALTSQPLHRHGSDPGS
The experiment is described as follows: hERG QPatch screening protocol (hERG current block). Particulars: HEK-293 cells stably transfected with hERG; tail current; room temperature. As to the method:
hERG QPatch Screening Protocol
Solutions and Compound Plates:
The bath solution contained (in mM): 140 NaCl, 5 KCl, 1 MgCl2, 2 CaCl2, 5 glucose, 20 HEPES, pH=7.4. The internal solution contained (in mM): 125 K-aspartate, 20 KCl, 10 EGTA, 5 MgATP, 1 MgCl2, 5 HEPES, pH=7.3.
Compound plates were prepared with an acoustic liquid handler (Echo® 550, Labcyte), using 384-well source plates and 96-well destination plates. Compounds were delivered to the destination plates as 300 nL spots in half-log increments (1, 3, 10 and 30 mM), dissolved in dimethyl sulfoxide. Plates were solvated with bath solution (300 μL) to final concentrations (1, 3, 10 and 30 μM; 0.1% dimethyl sulfoxide) and added to the QPatch workstation.
Cells and Cell Preparation:
Human embryonic kidney (HEK-293) cells, stably transfected with the hERG channel, were obtained from Dr. C. W. January (Wisconsin Alumni Research Foundation). Cells were initially maintained at 37° C. (5% CO2 atmosphere) in MEM supplemented media. Cells were cryo-preserved in 10% dimethyl sulfoxide, 90% fetal bovine serum at 10 M cells/mL. For electrophysiological studies, cells were thawed, resuspended in media at 1.0-1.5 M cells/mL and placed on the QPatch workstation.
QPatch Electrophysiology Workstation and Experimental Protocol:
Currents were recorded using QPatch HT (Sophion), an automated planar patch-clamp system. The QPatch uses forty-eight amplifiers and a 48-chamber QPlate positioned directly on top of the headstage. To obtain high resistant seals, cells are added to each chamber and allowed to settle for 10 seconds. Negative pressure is then applied to promote cell delivery to the patch chip openings on the chamber bottom. After formation of GΩ seals, negative pressure ramps are applied to obtain intracellular access. Access resistance was initially optimized by additional pressure ramps to assure the intracellular access was adequate for voltage clamp experiments (targeted access resistance <10 MΩ). Whole-cell compensation and series resistance compensation were used at 60% (both predicted and corrected). Experiments using QPatch were conducted at room temperature.
A single application of each concentration was applied to cells. During a five-minute wash-in period, a four-second depolarizing pulse to +20 mV, followed by a five-second repolarizing pulse to −50 mV was applied once every 15 seconds from a holding potential of −80 mV. Cells were exposed to four ascending concentrations of drug in half-log intervals.
Evaluation of hERG Current Block:
hERG tail current was measured as the difference in amplitude between a […] and the end of a five-second test pulse to −50 mV, preceded by a four-second pulse to +20 mV. The hERG IC50 values for compounds were determined from tail current analysis. The IC50 was calculated with a logistic fitting routine using the following equation: y=[(A1−A2)/(1+(x/IC50))^p]A2, where A1=initial×value, A2=final×value and p=power.
For orientation: hERG is a cardiac potassium channel; its block is linked to QT prolongation.

Experiment [3] has as its target T3, recombinant human Nav1.7 (Homo sapiens, UniProt Q15858).
T3 construct: expressed in transfected cells; host or cells: HEK293
Briefly: FRET-based membrane potential assay, Nav1.7. Particulars: HEK293 cells expressing recombinant human Nav1.7; veratridine + scorpion venom depolarization.

T1 sequence (Q9Y5Y9 whole entry): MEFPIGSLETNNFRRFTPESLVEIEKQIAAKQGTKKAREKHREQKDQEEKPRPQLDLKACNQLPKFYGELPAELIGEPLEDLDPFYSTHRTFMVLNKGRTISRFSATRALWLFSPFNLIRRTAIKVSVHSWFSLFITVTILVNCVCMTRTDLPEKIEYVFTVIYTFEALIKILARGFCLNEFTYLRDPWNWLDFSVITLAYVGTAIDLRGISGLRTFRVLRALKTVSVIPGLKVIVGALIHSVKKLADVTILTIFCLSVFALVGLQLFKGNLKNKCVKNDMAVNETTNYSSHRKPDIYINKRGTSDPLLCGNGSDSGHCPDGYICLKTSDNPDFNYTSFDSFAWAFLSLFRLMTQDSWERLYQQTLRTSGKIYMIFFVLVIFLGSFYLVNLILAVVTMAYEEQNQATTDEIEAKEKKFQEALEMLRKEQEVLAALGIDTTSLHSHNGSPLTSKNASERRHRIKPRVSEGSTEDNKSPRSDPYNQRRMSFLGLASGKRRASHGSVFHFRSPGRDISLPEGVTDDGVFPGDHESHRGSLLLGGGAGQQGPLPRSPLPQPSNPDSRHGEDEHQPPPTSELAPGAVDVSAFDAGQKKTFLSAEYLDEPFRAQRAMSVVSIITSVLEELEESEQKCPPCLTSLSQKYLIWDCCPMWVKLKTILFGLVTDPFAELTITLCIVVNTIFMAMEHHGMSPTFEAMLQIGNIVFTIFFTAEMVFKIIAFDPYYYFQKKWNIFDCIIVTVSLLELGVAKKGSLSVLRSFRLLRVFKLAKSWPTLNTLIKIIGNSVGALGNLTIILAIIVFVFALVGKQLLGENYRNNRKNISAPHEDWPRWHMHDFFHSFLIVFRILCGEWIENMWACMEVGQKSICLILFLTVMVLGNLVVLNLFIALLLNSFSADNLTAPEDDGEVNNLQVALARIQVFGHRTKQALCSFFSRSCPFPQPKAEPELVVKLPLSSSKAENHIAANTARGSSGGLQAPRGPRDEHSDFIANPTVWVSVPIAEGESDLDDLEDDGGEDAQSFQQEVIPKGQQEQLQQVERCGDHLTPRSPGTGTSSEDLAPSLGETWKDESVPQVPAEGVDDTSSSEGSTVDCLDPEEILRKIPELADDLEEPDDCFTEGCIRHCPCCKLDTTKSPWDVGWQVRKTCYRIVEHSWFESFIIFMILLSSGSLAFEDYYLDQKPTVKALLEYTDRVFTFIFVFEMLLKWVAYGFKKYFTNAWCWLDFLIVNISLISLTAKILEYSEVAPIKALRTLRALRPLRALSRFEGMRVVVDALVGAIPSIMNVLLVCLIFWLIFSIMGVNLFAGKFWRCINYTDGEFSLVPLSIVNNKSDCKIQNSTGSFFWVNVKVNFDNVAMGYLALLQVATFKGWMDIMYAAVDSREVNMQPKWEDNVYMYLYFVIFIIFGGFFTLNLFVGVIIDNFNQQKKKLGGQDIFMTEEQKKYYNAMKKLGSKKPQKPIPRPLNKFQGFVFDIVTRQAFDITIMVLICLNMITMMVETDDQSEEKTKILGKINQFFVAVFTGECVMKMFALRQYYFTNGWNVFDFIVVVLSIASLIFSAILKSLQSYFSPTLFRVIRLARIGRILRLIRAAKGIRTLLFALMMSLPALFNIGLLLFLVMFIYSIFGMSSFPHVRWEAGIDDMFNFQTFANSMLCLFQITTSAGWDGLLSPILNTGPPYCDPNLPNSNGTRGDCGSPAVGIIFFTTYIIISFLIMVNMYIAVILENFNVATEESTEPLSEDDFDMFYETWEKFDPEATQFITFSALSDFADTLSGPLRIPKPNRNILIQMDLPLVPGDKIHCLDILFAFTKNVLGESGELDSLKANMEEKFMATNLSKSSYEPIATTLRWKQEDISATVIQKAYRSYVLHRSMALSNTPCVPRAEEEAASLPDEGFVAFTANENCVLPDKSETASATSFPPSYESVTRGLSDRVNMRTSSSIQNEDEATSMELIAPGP
T3 sequence (Q15858 whole entry): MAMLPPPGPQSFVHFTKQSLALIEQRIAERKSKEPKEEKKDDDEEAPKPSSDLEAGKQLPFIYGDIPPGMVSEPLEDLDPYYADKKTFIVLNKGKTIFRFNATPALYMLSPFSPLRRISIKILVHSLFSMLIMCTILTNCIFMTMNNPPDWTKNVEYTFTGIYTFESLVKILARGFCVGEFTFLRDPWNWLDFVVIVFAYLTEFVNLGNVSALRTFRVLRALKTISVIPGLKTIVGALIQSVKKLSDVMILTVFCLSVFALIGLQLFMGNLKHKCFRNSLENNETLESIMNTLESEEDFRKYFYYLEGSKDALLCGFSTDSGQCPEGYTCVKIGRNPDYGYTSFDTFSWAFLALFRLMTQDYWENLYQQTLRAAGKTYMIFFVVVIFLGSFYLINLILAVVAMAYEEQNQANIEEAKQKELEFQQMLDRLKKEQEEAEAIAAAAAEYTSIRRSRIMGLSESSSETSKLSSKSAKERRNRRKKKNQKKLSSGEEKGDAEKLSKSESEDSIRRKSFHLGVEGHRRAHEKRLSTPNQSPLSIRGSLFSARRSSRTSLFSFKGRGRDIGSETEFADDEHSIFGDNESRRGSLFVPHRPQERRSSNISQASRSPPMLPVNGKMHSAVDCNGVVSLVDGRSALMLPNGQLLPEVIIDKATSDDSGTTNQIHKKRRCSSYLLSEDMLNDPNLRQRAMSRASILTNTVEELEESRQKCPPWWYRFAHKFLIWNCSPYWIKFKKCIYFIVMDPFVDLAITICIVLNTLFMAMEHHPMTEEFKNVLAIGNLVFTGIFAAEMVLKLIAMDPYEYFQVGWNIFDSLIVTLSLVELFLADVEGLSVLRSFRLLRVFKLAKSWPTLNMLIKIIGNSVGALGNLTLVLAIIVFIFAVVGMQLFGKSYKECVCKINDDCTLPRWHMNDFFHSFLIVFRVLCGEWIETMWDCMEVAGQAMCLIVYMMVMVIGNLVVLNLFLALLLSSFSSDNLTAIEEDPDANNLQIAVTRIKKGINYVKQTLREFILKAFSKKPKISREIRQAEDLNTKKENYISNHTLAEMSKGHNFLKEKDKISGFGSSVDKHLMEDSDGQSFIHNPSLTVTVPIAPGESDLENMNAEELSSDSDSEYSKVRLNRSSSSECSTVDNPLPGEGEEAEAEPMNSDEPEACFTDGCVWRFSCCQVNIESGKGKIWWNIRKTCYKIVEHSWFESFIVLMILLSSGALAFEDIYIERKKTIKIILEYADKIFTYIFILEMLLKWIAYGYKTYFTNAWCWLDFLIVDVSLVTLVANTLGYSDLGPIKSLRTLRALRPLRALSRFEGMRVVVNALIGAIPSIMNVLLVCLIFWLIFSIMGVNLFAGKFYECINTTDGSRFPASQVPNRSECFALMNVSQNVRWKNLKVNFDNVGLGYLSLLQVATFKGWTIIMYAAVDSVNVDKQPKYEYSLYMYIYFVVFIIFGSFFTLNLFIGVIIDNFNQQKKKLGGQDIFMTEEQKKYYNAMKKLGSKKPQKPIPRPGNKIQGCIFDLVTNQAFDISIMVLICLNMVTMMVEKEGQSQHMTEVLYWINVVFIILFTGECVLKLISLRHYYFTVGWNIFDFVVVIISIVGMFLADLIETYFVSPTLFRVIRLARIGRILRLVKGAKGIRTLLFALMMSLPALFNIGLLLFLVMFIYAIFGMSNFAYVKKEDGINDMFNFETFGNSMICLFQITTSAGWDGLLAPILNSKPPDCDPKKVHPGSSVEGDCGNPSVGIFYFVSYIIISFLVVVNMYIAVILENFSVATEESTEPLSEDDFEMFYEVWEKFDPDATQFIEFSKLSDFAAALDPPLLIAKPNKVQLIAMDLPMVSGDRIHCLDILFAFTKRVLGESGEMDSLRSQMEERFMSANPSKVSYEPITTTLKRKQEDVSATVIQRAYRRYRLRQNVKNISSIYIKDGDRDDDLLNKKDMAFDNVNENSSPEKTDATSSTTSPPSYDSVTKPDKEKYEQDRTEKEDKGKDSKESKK

Usually IC50 stands for the midpoint of a concentration-inhibition curve. Take `O=C1[C@H]2[C@H](CCN2C(=O)[C@@H]2CCOC2)CN1c1cccc2c1cnn2-c1ccccc1F` (mixture of isomers) [Example 3, (3aR*,6aR*)-5-[1-(2-fluorophenyl)-1H-indazol-4-yl]-1-[(3R)-tetrahydrofuran-3-ylcarbonyl]hexahydropyrrolo[3,4-b]pyrrol-6(1H)-one]: the concentration for half-maximal inhibition (IC50) is 5.4 µM in experiment [1], more than 30 µM in experiment [2] and 1.93 µM in experiment [3].
In the case of `CC(C)(O)C(=O)N1CC[C@@H]2CN(c3cccc4c3cnn4-c3ccccc3F)C(=O)[C@@H]21` (relative stereo) [Example 4, rel-(3aR,6aR)-5-[1-(2-fluorophenyl)-1H-indazol-4-yl]-1-(2-hydroxy-2-methylpropanoyl)hexahydropyrrolo[3,4-b]pyrrol-6(1H)-one], the IC50 is more than 30 µM in experiment [2] and 1.95 µM in experiment [3].
For `O=C1[C@H]2[C@H](CCN2C(=O)C2(O)CC2)CN1c1cccc2c1cnn2-c1ccccc1F` (relative stereo) [Example 5, rel-(3aR,6aR)-5-[1-(2-fluorophenyl)-1H-indazol-4-yl]-1-[(1-hydroxycyclopropyl)carbonyl]hexahydropyrrolo[3,4-b]pyrrol-6(1H)-one] the same measures were more than 30 µM and 1.68 µM.
`CC(=O)N1CC[C@@H]2CN(c3cccc4c3cnn4-c3ccccc3F)C(=O)[C@@H]21` (relative stereo) [Example 6, rel-(3aR,6aR)-1-acetyl-5-[1-(2-fluorophenyl)-1H-indazol-4-yl]hexahydropyrrolo[3,4-b]pyrrol-6(1H)-one]: the IC50 in experiment [1] was 14.7 µM; in experiment [3], 13.1 µM.
In the case of `O=C1[C@H]2CN(C(=O)n3ccnc3)C[C@H]2CN1c1cccc2c1cnn2-c1ccccc1F` (relative stereo) [Example 12, rel-(3aR,6aR)-2-[1-(2-fluorophenyl)-1H-indazol-4-yl]-5-(1H-imidazol-1-ylcarbonyl)hexahydropyrrolo[3,4-c]pyrrol-1(2H)-one], the half-maximal inhibitory concentration (IC50) in experiment [2] amounted to 13.7 µM; in experiment [3], 3.06 µM.
On the same counts, the results for `CC(C)CS(=O)(=O)N1C[C@@H]2CN(c3cccc4c3cnn4-c3ccccc3F)C(=O)[C@@H]2C1` [Example 21, (3aS,6aS)-2-[1-(2-fluorophenyl)-1H-indazol-4-yl]-5-(isobutylsulfonyl)hexahydropyrrolo[3,4-c]pyrrol-1(2H)-one] are 14.2 µM and 0.903 µM.
For `CCS(=O)(=O)N1C[C@@H]2CN(c3cccc4c3cnn4-c3ccccc3F)C(=O)[C@@H]2C1` [Example 23, (3aS,6aS)-5-(ethylsulfonyl)-2-[1-(2-fluorophenyl)-1H-indazol-4-yl]hexahydropyrrolo[3,4-c]pyrrol-1(2H)-one] the same measures were more than 30 µM and 2.93 µM.
For `O=C(Cc1coc2ccccc12)N1CC2CN(c3cccc4c3cnn4-c3ccccc3F)C(=O)C2C1` [Example 25, (3aR,6aS)-5-(1-benzofuran-3-ylacetyl)-2-[1-(2-fluorophenyl)-1H-indazol-4-yl]hexahydropyrrolo[3,4-c]pyrrol-1(2H)-one] the same measures were 4.31 µM and 1.29 µM.
For the compound `O=C1[C@@H]2CN(S(=O)(=O)CCC(F)(F)F)C[C@@H]2CN1c1cccc2c1cnn2-c1ccccc1F` [Example 26, (3aS,6aS)-2-[1-(2-fluorophenyl)-1H-indazol-4-yl]-5-[(3,3,3-trifluoropropyl)sulfonyl]hexahydropyrrolo[3,4-c]pyrrol-1(2H)-one], the 50% inhibitory concentration (IC50) is more than 30 µM in experiment [2] and 2.94 µM in experiment [3].
With `O=C1[C@@H]2CN(S(=O)(=O)c3ccccc3)C[C@@H]2CN1c1cccc2c1cnn2-c1ccccc1F` [Example 29, (3aS,6aS)-2-[1-(2-fluorophenyl)-1H-indazol-4-yl]-5-(phenylsulfonyl)hexahydropyrrolo[3,4-c]pyrrol-1(2H)-one], the IC50 turned out to be 26.5 µM in experiment [2] and 2.88 µM in experiment [3].
On the same counts, the results for `O=C(c1coc(CN2CCCC2)n1)N1C[C@@H]2CN(c3cccc4c3cnn4-c3ccccc3F)C(=O)[C@@H]2C1` [Example 31, (3aR,6aS)-2-[1-(2-fluorophenyl)-1H-indazol-4-yl]-5-{[2-(pyrrolidin-1-ylmethyl)-1,3-oxazol-4-yl]carbonyl}hexahydropyrrolo[3,4-c]pyrrol-1(2H)-one] are 13.5 µM and 0.463 µM.
For the compound `O=C(C1CC1(F)F)N1C[C@@H]2CN(c3cccc4c3cnn4-c3ccccc3F)C(=O)[C@@H]2C1` (stereo partly drawn) [Example 40, (3aR,6aS)-5-[(2,2-difluorocyclopropyl)carbonyl]-2-[1-(2-fluorophenyl)-1H-indazol-4-yl]hexahydropyrrolo[3,4-c]pyrrol-1(2H)-one], the IC50 in experiment [3] turned out to be 10.4 µM.
Same read-out and setting: to `CC(C)(O)C(=O)N1C[C@H]2CN(c3cccc4c3cnn4-c3ccccc3F)C(=O)[C@H]2C1` [Example 41, (3aS,6aR)-2-[1-(2-fluorophenyl)-1H-indazol-4-yl]-5-(2-hydroxy-2-methylpropanoyl)hexahydropyrrolo[3,4-c]pyrrol-1(2H)-one] belongs 13.1 µM; to `O=C1[C@H]2CN(C(=O)C3(O)CC3)C[C@H]2CN1c1cccc2c1cnn2-c1ccccc1F` [Example 42, (3aS,6aR)-2-[1-(2-fluorophenyl)-1H-indazol-4-yl]-5-[(1-hydroxycyclopropyl)carbonyl]hexahydropyrrolo[3,4-c]pyrrol-1(2H)-one], 8.89 µM.
Turning to `O=C(C1CC(Cl)C1)N1C[C@H]2CN(c3cccc4c3cnn4-c3ccccc3F)C(=O)[C@H]2C1` (stereo partly drawn) [Example 43, (3aS,6aR)-5-[(3-chlorocyclobutyl)carbonyl]-2-[1-(2-fluorophenyl)-1H-indazol-4-yl]hexahydropyrrolo[3,4-c]pyrrol-1(2H)-one], the IC50 in experiment [2] is more than 30 µM; in experiment [3], 3.03 µM.
For the compound `NC(=O)CC(=O)N1C[C@H]2CN(c3cccc4c3cnn4-c3ccccc3F)C(=O)[C@H]2C1` [Example 44, 3-[(3aR,6aS)-5-[1-(2-fluorophenyl)-1H-indazol-4-yl]-4-oxohexahydropyrrolo[3,4-c]pyrrol-2(1H)-yl]-3-oxopropanamide], the half-maximal inhibitory concentration (IC50) in experiment [1] and in experiment [3] was more than 20 µM each time.
Turning to `O=C(CCO)N1C[C@H]2CN(c3cccc4c3cnn4-c3ccccc3F)C(=O)[C@H]2C1` [Example 45, (3aS,6aR)-2-[1-(2-fluorophenyl)-1H-indazol-4-yl]-5-(3-hydroxypropanoyl)hexahydropyrrolo[3,4-c]pyrrol-1(2H)-one], the half-maximal inhibitory concentration (IC50) in experiment [1] and in experiment [3] was more than 20 µM in each case.
As for `CC(=O)N1C[C@H]2CN(c3cccc4c3cnn4-c3ccccc3F)C(=O)[C@H]2C1` [Example 46, (3aS,6aR)-5-acetyl-2-[1-(2-fluorophenyl)-1H-indazol-4-yl]hexahydropyrrolo[3,4-c]pyrrol-1(2H)-one], the half-maximal inhibitory concentration (IC50) in experiment [2] is more than 30 µM; in experiment [3], 3.56 µM.
Regarding `CC(C)(O)C(=O)N1CC[C@@H]2CN(c3cccc4c3cnn4-c3ccccc3F)C(=O)[C@@H]21` [Example 47, (3aR,6aR)-5-[1-(2-fluorophenyl)-1H-indazol-4-yl]-1-(2-hydroxy-2-methylpropanoyl)hexahydropyrrolo[3,4-b]pyrrol-6(1H)-one], in experiment [3], the concentration for half-maximal inhibition (IC50) was 3.06 µM.
Still for that read-out and setting: the figure for `O=C1[C@H]2[C@H](CCN2C(=O)C2(O)CC2)CN1c1cccc2c1cnn2-c1ccccc1F` [Example 48, (3aR,6aR)-5-[1-(2-fluorophenyl)-1H-indazol-4-yl]-1-[(1-hydroxycyclopropyl)carbonyl]hexahydropyrrolo[3,4-b]pyrrol-6(1H)-one] is 0.593 µM.
With `CC(C)(O)C(=O)N1CC[C@H]2CN(c3cccc4c3cnn4-c3ccccc3F)C(=O)[C@H]21` [Example 49, (3aS,6aS)-5-[1-(2-fluorophenyl)-1H-indazol-4-yl]-1-(2-hydroxy-2-methylpropanoyl)hexahydropyrrolo[3,4-b]pyrrol-6(1H)-one], the IC50 worked out at 4.03 µM in experiment [1] and 0.397 µM in experiment [3].
